Results from US11753407B2, “Compounds for treating spinal muscular atrophy” (PTC Therapeutics, Inc., priority 2012, dated 2023).

Columns and labels:
[1] = tested on: Smn protein in SMA patient fibroblast cells (GM03813); assay: Smn protein assay in cultured cells (SMN HTRF); assay type: cell-based, human; details: SMA patient fibroblast cells, 48 hours; for EC1.5x for Smn protein expression: 7-point concentration curve, SMN HTRF, concentration producing 1.5 times Smn protein vs DMSO vehicle control; for maximum fold (Fold) increase of Smn protein: 7-point concentration data, fold relative to vehicle control
Outline: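 Smn protein abundance in treated SMA fibroblasts was measured by HTRF after 48 h compound exposure. The reported EC1.5× is the concentration producing 1.5 times vehicle Smn levels.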

[2] = tested on: SMN2 minigene mRNA (SMN2-A minigene) in HEK293H cells; assay: SMN2 minigene mRNA splicing RT-qPCR assay in cultured cells; assay type: cell-based, human; details: Homo sapiens, HEK293-H; concentration increasing full length SMN2 mRNA 1.5-fold relative to vehicle-treated cells; HEK293H cells with SMN2-A minigene, 24 hours, 7-point concentration data; read-out: EC1.5x for production of full length SMN2 mRNA
Outline: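 Potency reflects the concentration that lifts full-length SMN2 minigene mRNA 1.5-fold above vehicle in stably transfected HEK293H cells after 24 h of treatment. Transcript abundance came from RT-qPCR as (1+E)^−Ct, normalized to GAPDH; endogenous SMN1/SMN2 are not detected.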

Row | melting point [°C] | SMILES | EC1.5x for Smn protein expression [1] | maximum fold (Fold) increase of Smn protein [1] | EC (1.5-fold increase) [2] [µM]
1 | 198 to 200 | CCN1CCC(c2cn3c(=O)cc(-c4ccc5nn(C)cc5c4)nc3cn2)CC1 [Compound 568, 7-(1-ethylpiperidin-4-yl)-2-(2-methyl-2H-indazol-5-yl)-4H-pyrazino[1,2-a]pyrimidin-4-one] | **** (an EC1.5x≤0.3 μM is indicated by four stars (****)) | ***** (a fold increase >1.65 is indicated by five stars (*****)) | < 0.1
2 | 230 to 232 | Cn1cc2cc(-c3cc(=O)n4cc(C5CCN(CCO)CC5)ncc4n3)ccc2n1 [Compound 569, 7-[1-(2-hydroxyethyl)piperidin-4-yl]-2-(2-methyl-2H-indazol-5-yl)-4H-pyrazino[1,2-a]pyrimidin-4-one] | **** (an EC1.5x≤0.3 μM is indicated by four stars (****)) | ***** (a fold increase >1.65 is indicated by five stars (*****)) | < 0.1
3 | 206 to 208 | Cc1cn2nc(-c3cc(=O)n4cc(N5CCC(CN(C)C)CC5)ccc4n3)cc2c(C)n1 [Compound 570, 7-{4-[(dimethylamino)methyl]piperidin-1-yl}-2-(4,6-dimethylpyrazolo[1,5-a]pyrazin-2-yl)-4H-pyrido[1,2-a]pyrimidin-4-one] | ** (an EC1.5× between >1 μM and ≤3 μM is indicated by two stars (**)) | **** (a fold increase between >1.5 and ≤1.65 is indicated by four stars (****)) | 0.3 to 1
4 | 177 to 180 | Cc1cn2nc(-c3cc(=O)n4cc(N5CCC(CN6CCCC6)CC5)ccc4n3)cc2c(C)n1 [Compound 571, 2-(4,6-dimethylpyrazolo[1,5-a]pyrazin-2-yl)-7-[4-(pyrrolidin-1-ylmethyl)piperidin-1-yl]-4H-pyrido[1,2-a]pyrimidin-4-one] | ** (an EC1.5× between >1 μM and ≤3 μM is indicated by two stars (**)) | **** (a fold increase between >1.5 and ≤1.65 is indicated by four stars (****)) | 0.3 to 1
5 | 192 to 195 | Cc1cn2nc(-c3cc(=O)n4cc(N5CCC(CN6CCCCC6)CC5)ccc4n3)cc2c(C)n1 [Compound 572, 2-(4,6-dimethylpyrazolo[1,5-a]pyrazin-2-yl)-7-[4-(piperidin-1-ylmethyl)piperidin-1-yl]-4H-pyrido[1,2-a]pyrimidin-4-one] | ** (an EC1.5× between >1 μM and ≤3 μM is indicated by two stars (**)) | **** (a fold increase between >1.5 and ≤1.65 is indicated by four stars (****)) | 0.3 to 1
6 | 182 to 184 | COc1ccc(-c2cc(=O)n3cc(N4CCC(CN(C)C)CC4)ccc3n2)cc1OC [Compound 573, 2-(3,4-dimethoxyphenyl)-7-{4-[(dimethylamino)methyl]piperidin-1-yl}-4H-pyrido[1,2-a]pyrimidin-4-one] | ** (an EC1.5× between >1 μM and ≤3 μM is indicated by two stars (**)) | **** (a fold increase between >1.5 and ≤1.65 is indicated by four stars (****)) | 0.3 to 1
7 | 194 to 196 | COc1ccc(-c2cc(=O)n3cc(N4CCC(CN5CCCC5)CC4)ccc3n2)cc1OC [Compound 574, 2-(3,4-dimethoxyphenyl)-7-[4-(pyrrolidin-1-ylmethyl)piperidin-1-yl]-4H-pyrido[1,2-a]pyrimidin-4-one] |  | ** (a fold increase between >1.2 and ≤1.35 is indicated by two stars (**)) | 0.3 to 1
8 | 184 to 186 | COc1ccc(-c2cc(=O)n3cc(N4CCC(CN5CCCCC5)CC4)ccc3n2)cc1OC [Compound 575, 2-(3,4-dimethoxyphenyl)-7-[4-(piperidin-1-ylmethyl)piperidin-1-yl]-4H-pyrido[1,2-a]pyrimidin-4-one] |  | *** (a fold increase between >1.35 and ≤1.5 is indicated by three stars (***)) | 0.3 to 1
9 | 200 to 202 | Cc1cn2cc(-c3cc(=O)n4cc(C5CCN(CCO)CC5)ccc4n3)ccc2n1 [Compound 576, 7-[1-(2-hydroxyethyl)piperidin-4-yl]-2-(2-methylimidazo[1,2-a]pyridin-6-yl)-4H-pyrido[1,2-a]pyrimidin-4-one] | **** (an EC1.5x≤0.3 μM is indicated by four stars (****)) | ***** (a fold increase >1.65 is indicated by five stars (*****)) | < 0.1
10 | 256 to 258 | CN1CCC(c2ccc3nc(-c4ccc5nn(C)cc5c4)cc(=O)n3c2)CC1 [Compound 578, 2-(2-methyl-2H-indazol-5-yl)-7-(1-methylpiperidin-4-yl)-4H-pyrido[1,2-a]pyrimidin-4-one] | **** (an EC1.5x≤0.3 μM is indicated by four stars (****)) | ***** (a fold increase >1.65 is indicated by five stars (*****)) | < 0.1

The next lines start with the compound.

Row | SMILES | melting point [°C] | EC1.5x for Smn protein expression [1] | maximum fold (Fold) increase of Smn protein [1] | EC (1.5-fold increase) [2] [µM]
11 | Cc1cn2nc(-c3cc(=O)n4cc(N5CCN[C@@H](C)C5)cc(C)c4n3)cc2c(C)n1 [Compound 561, 2-(4,6-dimethylpyrazolo[1,5-a]pyrazin-2-yl)-9-methyl-7-[(3S)-3-methylpiperazin-1-yl]-4H-pyrido[1,2-a]pyrimidin-4-one] | 210 to 219 | **** (an EC1.5x≤0.3 μM is indicated by four stars (****)) | **** (a fold increase between >1.5 and ≤1.65 is indicated by four stars (****)) | < 0.1
12 | Cc1cn2nc(-c3cc(=O)n4cc(N5C[C@@H](C)N[C@@H](C)C5)cc(C)c4n3)cc2c(C)n1 [Compound 562, 7-[(3R,5S)-3,5-dimethylpiperazin-1-yl]-2-(4,6-dimethylpyrazolo[1,5-a]pyrazin-2-yl)-9-methyl-4H-pyrido[1,2-a]pyrimidin-4-one] | 273 to 283 |  | ** (a fold increase between >1.2 and ≤1.35 is indicated by two stars (**)) | 0.3 to 1
13 | Cc1cn2nc(-c3cc(=O)n4cc(N5CCN(C)[C@@H](C)C5)cc(C)c4n3)cc2c(C)n1 [Compound 563, 7-[(3S)-3,4-dimethylpiperazin-1-yl]-2-(4,6-dimethylpyrazolo[1,5-a]pyrazin-2-yl)-9-methyl-4H-pyrido[1,2-a]pyrimidin-4-one] | 244 to 253 | **** (an EC1.5x≤0.3 μM is indicated by four stars (****)) | ***** (a fold increase >1.65 is indicated by five stars (*****)) | 0.1 to 0.3
14 | Cc1cn2nc(-c3cc(=O)n4cc(N5C[C@@H](C)N(C)[C@@H](C)C5)cc(C)c4n3)cc2c(C)n1 [Compound 564, 2-(4,6-dimethylpyrazolo[1,5-a]pyrazin-2-yl)-9-methyl-7-[(3R,5S)-3,4,5-trimethylpiperazin-1-yl]-4H-pyrido[1,2-a]pyrimidin-4-one] | 297 to 310 |  | * (A maximum fold increase of ≤1.2 is indicated by one star (*)) | 1 to 3
15 | Cc1cn2cc(-c3cc(=O)n4cc(C5=CCN(C(C)C)CC5)ccc4n3)ccc2n1 [Compound 565, 2-(2-methylimidazo[1,2-a]pyridin-6-yl)-7-[1-(propan-2-yl)-1,2,3,6-tetrahydropyridin-4-yl]-4H-pyrido[1,2-a]pyrimidin-4-one] | 230 to 232 | *** (an EC1.5× between >0.3 μM and ≤1 μM is indicated by three stars (***)) | **** (a fold increase between >1.5 and ≤1.65 is indicated by four stars (****)) | < 0.1
16 | Cn1cc2cc(-c3cc(=O)n4cc(C5CCNCC5)ncc4n3)ccc2n1 [Compound 566, 2-(2-methyl-2H-indazol-5-yl)-7-(piperidin-4-yl)-4H-pyrazino[1,2-a]pyrimidin-4-one] | 235 to 237 | **** (an EC1.5x≤0.3 μM is indicated by four stars (****)) | ***** (a fold increase >1.65 is indicated by five stars (*****)) | < 0.1
17 | CN1CCC(c2cn3c(=O)cc(-c4ccc5nn(C)cc5c4)nc3cn2)CC1 [Compound 567, 2-(2-methyl-2H-indazol-5-yl)-7-(1-methylpiperidin-4-yl)-4H-pyrazino[1,2-a]pyrimidin-4-one] | 275 to 277 | *** (an EC1.5× between >0.3 μM and ≤1 μM is indicated by three stars (***)) | **** (a fold increase between >1.5 and ≤1.65 is indicated by four stars (****)) | 0.1 to 0.3
18 | Cc1cn2cc(-c3cc(=O)n4cc(C5=CCN(CCO)CC5)ccc4n3)ccc2n1 [Compound 577, 7-[1-(2-hydroxyethyl)-1,2,3,6-tetrahydropyridin-4-yl]-2-(2-methylimidazo[1,2-a]pyridin-6-yl)-4H-pyrido[1,2-a]pyrimidin-4-one] | 248 to 250 | **** (an EC1.5x≤0.3 μM is indicated by four stars (****)) | ***** (a fold increase >1.65 is indicated by five stars (*****)) | < 0.1
